Test results: patent US20140045776A1, “METHOD FOR INCREASING THE SHELF LIFE OF FOOD PRODUCTS” (GALACTIC S.A., priority 2011, published 2014)

System: aerobic bacteria
Assay: Shelf life of minced meat stored at 4° C. (total number of aerobic bacteria)
Format: cell-based
Procedure: The usual formulation of a minced meat was prepared with the following ingredients:
Preservatives were added to this basic formulation, the maximum percentage being 4% (of a fermentate having a main-salt concentration of 40%) compared with the whole of the meat-based food product.
The minced meats are prepared according to the following procedure:
a) Preparing of the meat: the meat and fat are cut into small pieces and minced using a mincer having a 4 mm mincing grille. The meat, fat and other ingredients are then disposed by means of a mixer of the Kenwood type having a type K stirring blade. Operate the stirring for 30 seconds (minimum power).
b) Sampling: the product thus obtained is divided into 100 g samples and placed in plastic bags.
c) Storage: the products obtained are packaged in stretch film and stored at a temperature of 4° C.±1° C. for 10 days.
Twice a week, the pH, the activity of the water (Aw) and total number of aerobic bacteria were evaluated on the samples.
The shelf life of the product prepared without a preservative (reference) was compared with that of the product containing standard potassium lactate—Galoflow PL (Galactic SA) and that of the product containing the fermentate obtained by sugar fermentation by Bacillus coagulans spp. […] The results are set out in graph 1. […]

Question: What does the source list for `CC(O)C(=O)[O-].[K+]` (centres unmarked) [potassium lactate]?
Answer: preservative effect on the meat matrix (Example 2, minced meat, each at a concentration not impacting on the taste (0.05% potassium acetate, 2% potassium lactate), graph 2): preservative effect superior to that of potassium acetate; effect on shelf life of the product (Example 3, minced meat, potassium lactate with main-salt concentration 60% at various concentrations, 4° C., graph 3): increases the shelf life of the product
